Results reported in ChEMBL document CHEMBL4610120, “New Broad-Spectrum Antibiotics Containing a Pyrrolobenzodiazepine Ring with Activity against Multidrug-Resistant Gram-Negative Bacteria” (J Med Chem, 2020).
In brackets after ≈: the same amount, converted by molar mass. Activity calls are given as the source filed them. The calls are words filed in the database; no cut-off is given here.

What was measured:
Staphylococcus aureus [1] = test: Antibacterial activity against methicillin resistant Staphylococcus aureus NCTC 13616 by microdilution broth method; format: functional
Acinetobacter baumannii [2] = test: Antimicrobial activity against multidrug-resistant Acinetobacter baumannii UKA2 by microdilution broth method; format: functional
[3] = Selectivity ratio of cytotoxicity against human WI38 cells to MIC for methicillin resistant Staphylococcus aureus NCTC 13277; format: toxicity, cell-based
Acinetobacter baumannii [4] = test: Antimicrobial activity against multidrug-resistant Acinetobacter baumannii AYE in presence of efflux pump inhibitor PAbetaN by microdilution broth method; format: functional
Klebsiella pneumoniae [5] = test: Antimicrobial activity against multidrug-resistant Klebsiella pneumoniae M6 by microdilution broth method; format: functional
Klebsiella pneumoniae [6] = test: Antimicrobial activity against Klebsiella pneumoniae M137K by microdilution broth method; format: functional
Klebsiella pneumoniae [7] = test: Ratio of MIC for multidrug-resistant Klebsiella pneumoniae NCTC 13368 to MIC for multidrug-resistant Klebsiella pneumoniae NCTC 13368 in presence of efflux pump inhibitor PAbetaN; format: functional
DNA = test: Stabilization of 5'-FAM-TAT-ATA-TAG-ATA-TTT-TTT-TAT-CTA-TAT-ATA-3'-TAMRA DNA (unknown origin) assessed as reduction in change in melting temperature at 1:1 to 5:1 ligand to DNA ratio measured after 3 hrs by FRET-based assay relative to control; format: ADME, nucleic-acid assay
Escherichia coli [8] = test: Antimicrobial activity against multidrug-resistant Escherichia coli NCTC 12923 by microdilution broth method; format: functional
[9] = Selectivity ratio of cytotoxicity against human WI38 cells to MIC for vancomycin resistant Enterococcus faecalis NCTC 12201; format: toxicity, cell-based
Pseudomonas aeruginosa [10] = test: Antimicrobial activity against multidrug-resistant Pseudomonas aeruginosa NCTC 13437 in presence of efflux pump inhibitor PAbetaN by microdilution broth method; format: functional
Acinetobacter baumannii [11] = test: Antimicrobial activity against Acinetobacter baumannii ATCC 17978 by microdilution broth method; format: functional
Escherichia coli [12] = test: Antimicrobial activity against multidrug-resistant Escherichia coli LEC001 by microdilution broth method; format: functional
Pseudomonas aeruginosa [13] = test: Antimicrobial activity against Pseudomonas aeruginosa PAO1 in presence of membrane permeabilizer PMBN by microdilution broth method; format: functional
[14] = Antimicrobial activity against multidrug-resistant Burkholderia cepacia complex NCTC 10743 by microdilution broth method; format: functional
[15] = target: T1, LexA repressor (Escherichia coli) (UniProt P0A7C2); test: Induction of Escherichia coli K12 MG1655 lexA promotor measured at 30 mins interval for 20 hrs by fluorescence assay relative to control; settings: Escherichia coli str. K-12 substr. MG1655
T1 sequence (whole entry): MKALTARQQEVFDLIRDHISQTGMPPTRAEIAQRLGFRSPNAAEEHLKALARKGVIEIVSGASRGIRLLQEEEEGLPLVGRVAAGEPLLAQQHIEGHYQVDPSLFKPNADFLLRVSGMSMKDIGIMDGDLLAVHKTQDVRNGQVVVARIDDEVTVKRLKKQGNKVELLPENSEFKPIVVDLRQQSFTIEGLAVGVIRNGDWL

[16] = Selectivity ratio of cytotoxicity against human WI38 cells to MIC for multidrug-resistant Acinetobacter baumannii AYE; format: toxicity, cell-based
[17] = Selectivity ratio of cytotoxicity against human WI38 cells to MIC for vancomycin resistant Enterococcus faecium NCTC 12204; format: toxicity, cell-based
[18] = target: T2, Protein RecA (Escherichia coli K-12) (UniProt P0A7G6); test: Induction of Escherichia coli K12 MG1655 recA promotor measured at 30 mins interval for 20 hrs by fluorescence assay relative to control; settings: Escherichia coli str. K-12 substr. MG1655
T2 sequence (whole entry): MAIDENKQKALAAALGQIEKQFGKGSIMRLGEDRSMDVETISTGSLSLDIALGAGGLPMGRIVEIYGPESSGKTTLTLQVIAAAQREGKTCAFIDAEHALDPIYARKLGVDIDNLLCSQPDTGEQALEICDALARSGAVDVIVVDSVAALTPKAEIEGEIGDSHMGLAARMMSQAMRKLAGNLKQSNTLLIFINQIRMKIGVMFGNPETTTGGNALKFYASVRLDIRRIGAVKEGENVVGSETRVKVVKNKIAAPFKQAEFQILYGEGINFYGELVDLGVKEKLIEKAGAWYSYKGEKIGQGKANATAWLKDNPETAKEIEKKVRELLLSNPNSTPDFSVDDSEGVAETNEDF

Pseudomonas aeruginosa [19] = test: Ratio of MIC for multidrug-resistant Pseudomonas aeruginosa NCTC 13437 to MIC for multidrug-resistant Pseudomonas aeruginosa NCTC 13437 in presence of membrane permeabilizer PMBN; format: functional
[20] = Selectivity ratio of cytotoxicity against human WI38 cells to MIC for Klebsiella pneumoniae M6; format: toxicity, cell-based
[21] = Selectivity ratio of cytotoxicity against human WI38 cells to MIC for multidrug-resistant Klebsiella pneumoniae NCTC 13368; format: toxicity, cell-based
Klebsiella pneumoniae [22] = test: Antimicrobial activity against multidrug-resistant Klebsiella pneumoniae 16 in presence of efflux pump inhibitor PAbetaN by microdilution broth method; format: functional
Pseudomonas aeruginosa [23] = test: Antimicrobial activity against Pseudomonas aeruginosa PAO1 in presence of efflux pump inhibitor PAbetaN by microdilution broth method; format: functional
Klebsiella pneumoniae [24] = test: Antimicrobial activity against multidrug-resistant Klebsiella pneumoniae NCTC 13368 in presence of efflux pump inhibitor CCCP by microdilution broth method; format: functional
Klebsiella pneumoniae [25] = test: Antimicrobial activity against multidrug-resistant Klebsiella pneumoniae NCTC 13438 in presence of efflux pump inhibitor PAbetaN by microdilution broth method; format: functional
Escherichia coli [26] = test: Antimicrobial activity against multidrug-resistant Escherichia coli 319238/UR by microdilution broth method; format: functional
Acinetobacter baumannii [27] = test: Antimicrobial activity against multidrug-resistant Acinetobacter baumannii NCTC 13424 in presence of efflux pump inhibitor PAbetaN by microdilution broth method; format: functional
Burkholderia multivorans = test: Antimicrobial activity against multidrug-resistant Burkholderia multivorans C1576 by microdilution broth method; format: functional
[28] = Selectivity ratio of cytotoxicity against human WI38 cells to MIC for methicillin sensitive Staphylococcus aureus NCTC 6571; format: toxicity, cell-based
Klebsiella pneumoniae [29] = test: Antimicrobial activity against multidrug-resistant Klebsiella pneumoniae NCTC 13368 in presence of efflux pump inhibitor PAbetaN by microdilution broth method; format: functional
Escherichia coli [30] = test: Antimicrobial activity against multidrug-resistant Escherichia coli CFI_160_KPC2 by microdilution broth method; format: functional
[31] = Solubility of the compound at 32 mg/L; format: physicochemical
Pseudomonas aeruginosa [32] = test: Antimicrobial activity against Pseudomonas aeruginosa PAO1 by microdilution broth method; format: functional
[33] = Selectivity ratio of cytotoxicity against human WI38 cells to MIC for Acinetobacter baumannii ATCC 17978; format: toxicity, cell-based
Staphylococcus aureus [34] = test: Antibacterial activity against methicillin sensitive Staphylococcus aureus NCTC 6571 by microdilution broth method; format: functional
Acinetobacter baumannii [35] = test: Antimicrobial activity against Acinetobacter baumannii ATCC 17978 in presence of efflux pump inhibitor CCCP by microdilution broth method; format: functional
Klebsiella pneumoniae [36] = test: Bactericidal activity against multidrug-resistant Klebsiella pneumoniae NCTC 13368 assessed as viable bacterial count at 4 times MIC measured after 4 to 24 hrs by Miles-Misra dilution method based time-kill assay; format: functional, organism-based
Acinetobacter baumannii [37] = test: Bactericidal activity against Acinetobacter baumannii NCTC 13424 assessed as reduction in viable bacterial count at 4 times MIC measured after 24 hrs by Miles-Misra dilution method based time-kill assay; format: functional, organism-based

Compound `COc1cc2c(cc1OCCCC(=O)Nc1cc(C(=O)Nc3ccc4oc(C(=O)N5CCSCC5)cc4c3)n(C)c1)N=C[C@@H]1CCCN1C2=O` has an MIC (Staphylococcus aureus [1]) of 2 µg/mL (≈ 2.86 µM), an MIC (Acinetobacter baumannii [2]) of 4 µg/mL (≈ 5.72 µM) and a selectivity ratio [3] of 100. For the same compound, the MIC (Acinetobacter baumannii [4]) was 2 µg/mL, the MIC (Klebsiella pneumoniae [5]) was 1 µg/mL (≈ 1.43 µM) and the MIC (Klebsiella pneumoniae [6]) was 32 µg/mL (≈ 45.8 µM). For the same compound, the Ratio (Klebsiella pneumoniae [7]) was 4, the fold change (FC) (DNA) was 3 to 4 and the MIC (Escherichia coli [8]) was 2 µg/mL (≈ 2.86 µM). The selectivity ratio [9] was 100, the MIC (Pseudomonas aeruginosa [10]) was > 32 µg/mL and the MIC (Acinetobacter baumannii [11]) was 2 µg/mL (≈ 2.86 µM). For the same compound, the MIC (Escherichia coli [12]) was 2 µg/mL (≈ 2.86 µM), the MIC (Pseudomonas aeruginosa [13]) was 0.25 to 8 µg/mL and the MIC [14] was 16 µg/mL (≈ 22.9 µM). For the same compound, the fold change (FC) [15] was 5 to 9, the selectivity ratio [16] was 10 and the selectivity ratio [17] was 100. The fold change (FC) [18] was 8 to 10, the Ratio (Pseudomonas aeruginosa [19]) was “>=8 - 64” and the selectivity ratio [20] was 10. The selectivity ratio [21] was 10, the MIC (Klebsiella pneumoniae [22]) was 2 µg/mL and the MIC (Pseudomonas aeruginosa [23]) was 32 µg/mL. For the same compound, the MIC (Klebsiella pneumoniae [24]) was > 32 µg/mL, the MIC (Klebsiella pneumoniae [25]) was 4 µg/mL and the MIC (Escherichia coli [26]) was 1 µg/mL (≈ 1.43 µM). The MIC (Acinetobacter baumannii [27]) was 2 µg/mL, the MIC (Burkholderia multivorans) was 16 µg/mL (≈ 22.9 µM) and the selectivity ratio [28] was 100. For the same compound, the MIC (Klebsiella pneumoniae [29]) was 8 µg/mL, the MIC (Escherichia coli [30]) was 4 µg/mL (≈ 5.72 µM) and the solubility [31] was “Insoluble”. It also gave an MIC (Pseudomonas aeruginosa [32]) of 32 to 128 µg/mL (≈ 45.8 to 183 µM) and a selectivity ratio [33] of 10.
Work on `COc1cc2c(cc1OCCCC(=O)Nc1cc(C(=O)Nc3ccc4sc(C(=O)N(C)C)cc4c3)n(C)c1)N=C[C@@H]1CCCN1C2=O` yielded an MIC (Staphylococcus aureus [1]) of 0.03 µg/mL (≈ 0.0457 µM), a selectivity ratio [3] of 100 and an MIC (Acinetobacter baumannii [4]) of 0.25 µg/mL. It also gave an MIC (Klebsiella pneumoniae [5]) of 1 µg/mL (≈ 1.52 µM), an MIC (Klebsiella pneumoniae [6]) of 16 to 32 µg/mL (≈ 24.4 to 48.7 µM) and a Ratio (Klebsiella pneumoniae [7]) of 4. It also gave a fold change (FC) (DNA) of 3 to 4, an MIC (Escherichia coli [8]) of 0.5 µg/mL (≈ 0.761 µM) and a selectivity ratio [9] of 100. The MIC (Pseudomonas aeruginosa [10]) was 16 µg/mL, the MIC (Acinetobacter baumannii [11]) was 0.5 to 1 µg/mL (≈ 0.761 to 1.52 µM) and the MIC (Escherichia coli [12]) was 1 µg/mL (≈ 1.52 µM). The MIC (Staphylococcus aureus [34]) was 0.03 µg/mL (≈ 0.0457 µM), the MIC (Acinetobacter baumannii [35]) was 0.25 µg/mL and the MIC (Pseudomonas aeruginosa [13]) was 2 to 16 µg/mL. It also gave an MIC [14] of 1 to 2 µg/mL (≈ 1.52 to 3.05 µM), a fold change (FC) [15] of 5 to 9 and a selectivity ratio [16] of 10. For the same compound, the selectivity ratio [17] was 100, the fold change (FC) [18] was 8 to 10 and the Ratio (Pseudomonas aeruginosa [19]) was 32 - 1000. It also gave a selectivity ratio [20] of 10, a selectivity ratio [21] of 10 and an MIC (Klebsiella pneumoniae [22]) of 2 µg/mL. For the same compound, the MIC (Pseudomonas aeruginosa [23]) was 2 µg/mL, the Activity (Klebsiella pneumoniae [36]) was “Below limit of detection” and the MIC (Klebsiella pneumoniae [24]) was 2 µg/mL. For the same compound, the MIC (Klebsiella pneumoniae [25]) was 0.25 µg/mL, the Activity (Acinetobacter baumannii [37]) was “inactive” and the MIC (Escherichia coli [26]) was 0.5 µg/mL (≈ 0.761 µM). It also gave an MIC (Acinetobacter baumannii [27]) of 0.25 µg/mL, an MIC (Burkholderia multivorans) of 1 µg/mL (≈ 1.52 µM) and a selectivity ratio [28] of 100. The MIC (Klebsiella pneumoniae [29]) was 0.5 µg/mL, the MIC (Escherichia coli [30]) was 0.5 µg/mL (≈ 0.761 µM) and the MIC (Pseudomonas aeruginosa [32]) was > 32 µg/mL. For the same compound, the selectivity ratio [33] was 10.
